# Reference: patent US20150119394A1, “Insulin-Like Growth Factor-1 Receptor Inhibitors” (Merck Sharp & Dohme Corp., priority 2012, published 2015)
# Target: T1, intracellular kinase domain of human IGF-1R (GST fusion protein) (Homo sapiens, UniProt P08069)
# T1 construct: IGFRK and IRK enzyme used for the assay was intracellular kinase domain of human IGF-1R; GST; made in house
# Test: In vitro IGF-1R kinase assay (HTRF)
# Assay type: biochemical
# Settings: ATP 20 μM, IGFRK 0.25 nM
# Protocol: The in vitro kinase assays using IGF-1R and IR kinase GST fusion proteins were conducted using a homogeneous time-resolved fluorescence (HTRF) format. Kinase reactions were carried out in a 384-well plate format in a final volume of 20 μL. The standard enzyme reaction buffer consisted of 50 mM Tris HCL (pH: 7.4), 1 mM EGTA, 10 mM MgCl2, 2 mM DTT, 0.01% Tween-20, IGF-1R/IR kinase enzyme, poly GT peptide substrate (Perkin Elmer [Ulight Glu-Tyr (4:1)]n) and ATP [concentration equivalent to Kmapp] […] Briefly, 2.5 μL enzyme and 2.5 μL inhibitor was preincubated for 10 minutes at 23° C. followed by the addition of 2.5 μL of poly GT substrate (final concentration of 50 nM). Reaction was initiated with the addition of 2.5 μL of ATP (final concentration of 20 μM for IGF-1R assay and 10 μM for IR assay). After 1 hour incubation at 23° C., the kinase reaction was stopped with the addition of 5 μL EDTA (final concentration of 10 mM in 20 μL). Europium cryptate—labeled antiphosphotyrosine antibody PY20 (5 μL) was added (final concentration of 2 nM) and the mixture was allowed to equilibrate for 1 hour at 23° C. followed by reading the plate in an Envision plate reader.
# The intensity of light emission at 665 nm was directly proportional to the level of substrate phosphorylation. The IC50 values for inhibitors were determined by a four-parameter sigmoidal curve fit (Sigma plot or Graph pad).
# IGFRK and IRK enzyme used for the assay was intracellular kinase domain of human IGF-1R and human IR cloned and expressed as GST fusion proteins using the baculovirus expression system and purified using glutathione—Sepharose column.
# T1 sequence (P08069 999-1274 limits assumed): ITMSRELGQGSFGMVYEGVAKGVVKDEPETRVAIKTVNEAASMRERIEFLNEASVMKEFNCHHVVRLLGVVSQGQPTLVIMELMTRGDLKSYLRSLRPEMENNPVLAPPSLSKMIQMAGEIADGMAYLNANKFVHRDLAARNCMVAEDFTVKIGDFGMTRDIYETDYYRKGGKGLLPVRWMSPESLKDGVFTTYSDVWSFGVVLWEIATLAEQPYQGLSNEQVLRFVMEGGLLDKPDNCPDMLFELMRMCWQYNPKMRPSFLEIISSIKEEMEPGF
row,IC50 [nM],Molecule
1,18.5,"NC(=O)c1[nH]c2ccc(Cl)cc2c1S(=O)(=O)N1CCO[C@H](COc2ccc(-c3ccnc(Cl)c3)cc2)C1 [Compound 84, (S)-5-chloro-3-((2-((4-(2-chloropyridin-4-yl)phenoxy)methyl)morpholino)sulfonyl)-1H-indole-2-carboxamide]"
2,> 1000,"CN(C)c1ccc(-c2ccc(OC[C@@H]3CN(S(=O)(=O)c4c(C(N)=O)[nH]c5ccc(Cl)cc45)CCO3)cc2)cn1 [Compound 34, (S)-5-chloro-3-((2-((4-(6-(dimethylamino)pyridin-3-yl)phenoxy)methyl)morpholino)sulfonyl)-1H-indole-2-carboxamide]"
3,> 1000,"COc1ccccc1-c1ccccc1OC[C@@H]1CN(S(=O)(=O)c2c(C(N)=O)[nH]c3ccc(Cl)cc23)CCO1 [Compound 58, (S)-5-chloro-3-((2-(((2′-methoxy-[1,1′-biphenyl]-2-yl)oxy)methyl)morpholino)sulfonyl)-1H-indole-2-carboxamide]"
4,13.2,"Cc1cc(-c2ccc(OC[C@@H]3CN(S(=O)(=O)c4c(C(N)=O)[nH]c5ccc(Cl)cc45)CCO3)cc2)cc(C)n1 [Compound 82, (S)-5-chloro-3-((2-((4-(2,6-dimethylpyridin-4-yl)phenoxy)methyl)morpholino)sulfonyl)-1H-indole-2-carboxamide]"
5,> 1000,"NC(=O)c1[nH]c2ccc(Cl)cc2c1S(=O)(=O)N1CCO[C@H](COc2ccc(-c3ccc(C(F)(F)F)nc3)cc2)C1 [Compound 35, (S)-5-chloro-3-((2-((4-(6-(trffluoromethyl)pyridin-3-yl)phenoxy)methyl)morpholino)sulfonyl)-1H-indole-2-carboxamide]"
6,204,"NC(=O)c1[nH]c2ccc(Cl)cc2c1S(=O)(=O)N1CCO[C@H](COc2cnc(-c3ccccc3)cn2)C1 [Compound 77, (S)-5-chloro-3-((2-(((5-phenylpyrazin-2-yl)oxy)methyl)morpholino)sulfonyl)-1H-indole-2-carboxamide]"
7,12.1,"NC(=O)c1[nH]c2ccc(Cl)cc2c1S(=O)(=O)N1CCO[C@H](COc2ccc(-c3ccnc(F)c3)cc2)C1 [Compound 45, (S)-5-chloro-3-((2-((4-(2-fluoropyridin-4-yl)phenoxy)methyl)morpholino)sulfonyl)-1H-indole-2-carboxamide]"
8,> 1000,"NC(=O)c1[nH]c2ccc(Cl)cc2c1S(=O)(=O)N1CCO[C@H](COc2ccccc2-c2cncnc2)C1 [Compound 60, (S)-5-chloro-3-((2-((2-(pyrimidin-5-yl)phenoxy)methyl)morpholino)sulfonyl)-1H-indole-2-carboxamide]"
9,> 1000,"NC(=O)c1[nH]c2ccc(Cl)cc2c1S(=O)(=O)N1CCO[C@H](COc2ccccc2-c2ccccc2F)C1 [Compound 62, (S)-5-chloro-3-((2-(((2′-fluoro-[1,1′-biphenyl]-2-yl)oxy)methyl)morpholino)sulfonyl)-1H-indole-2-carboxamide]"
10,11.2,"NC(=O)c1[nH]c2ccc(Cl)cc2c1S(=O)(=O)N1CCO[C@H](COc2ccc(F)c(-c3cccnc3)c2)C1 [Compound 26, (S)-5-chloro-3-((2-((4-fluoro-3-(pyridin-3-yl)phenoxy)methyl)morpholino)sulfonyl)-1H-indole-2-carboxamide]"
11,184,"Cc1ccc(OC[C@@H]2CN(S(=O)(=O)c3c(C(N)=O)[nH]c4ccc(Cl)cc34)CCO2)cc1-c1ccccc1F [Compound 21, (S)-5-chloro-3-((2-(((2′-fluoro-6-methyl-[1,1′-biphenyl]-3-yl)oxy)methyl)morpholino)sulfonyl)-1H-indole-2-carboxamide]"
12,12.8,"NC(=O)c1[nH]c2ccc(Cl)cc2c1S(=O)(=O)N1CCO[C@H](COc2ccc(-c3ccc(F)nc3)cc2)C1 [Compound 46, (S)-5-chloro-3-((2-((4-(6-fluoropyridin-3-yl)phenoxy)methyl)morpholino)sulfonyl)-1H-indole-2-carboxamide]"
13,> 1000,"Cc1ncccc1-c1ccccc1OC[C@@H]1CN(S(=O)(=O)c2c(C(N)=O)[nH]c3ccc(Cl)cc23)CCO1 [Compound 63, (S)-5-chloro-3-((2-((2-(2-methylpyridin-3-yl)phenoxy)methyl)morpholino)sulfonyl)-1H-indole-2-carboxamide]"
14,13.3,"Cc1cc(OC[C@@H]2CN(S(=O)(=O)c3c(C(N)=O)[nH]c4ccc(Cl)cc34)CCO2)ccc1-c1ccnc(F)c1 [Compound 72, (S)-5-chloro-3-((2-((4-(2-fluoropyridin-4-yl)-3-methylphenoxy)methyl)morpholino)sulfonyl)-1H-indole-2-carboxamide]"
15,6.9,"NC(=O)c1[nH]c2ccc(Cl)cc2c1S(=O)(=O)N1CCO[C@H](COc2ccc(F)c(-c3ccncc3)c2)C1 [Compound 28, (S)-5-chloro-3-((2-((4-fluoro-3-(pyridin-4-yl)phenoxy)methyl)morpholino)sulfonyl)-1H-indole-2-carboxamide]"
16,8.7,"NC(=O)c1[nH]c2ccc(Cl)cc2c1S(=O)(=O)N1CCO[C@H](COc2ccc(-c3cccnc3)cc2)C1 [Compound 31, (S)-5-chloro-3-((2-((4-(pyridin-3-yl)phenoxy)methyl)morpholino)sulfonyl)-1H-indole-2-carboxamide]"
17,30,"Cc1cc(OC[C@@H]2CN(S(=O)(=O)c3c(C(N)=O)[nH]c4ccc(Cl)cc34)CCO2)ccc1-c1ccc(F)nc1 [Compound 73, (S)-5-chloro-3-((2-((4-(6-fluoropyridin-3-yl)-3-methylphenoxy)methyl)morpholino)sulfonyl)-1H-indole-2-carboxamide]"
18,> 100,"Cn1nc(-c2ccccc2)cc1OC[C@@H]1CN(S(=O)(=O)c2c(C(N)=O)[nH]c3ccc(Cl)cc23)CCO1 [Compound 92, (S)-5-chloro-3-((2-(((1-methyl-3-phenyl-1H-pyrazol-5-yl)oxy)methyl)morpholino)sulfonyl)-1H-indole-2-carboxamide]"
19,> 100,"NC(=O)c1[nH]c2ccc(Cl)cc2c1S(=O)(=O)N1CCO[C@H](COc2cccc(-c3cccc(F)c3)c2)C1 [Compound 12, (S)-5-chloro-3-((2-(((3′-fluoro-[1,1′-biphenyl]-3-yl)oxy)methyl)morpholino)sulfonyl)-1H-indole-2-carboxamide]"
20,119,"NC(=O)c1[nH]c2ccc(Cl)cc2c1S(=O)(=O)N1CCO[C@H](COc2ccc(-c3ccccc3F)cc2)C1 [Compound 42, (S)-5-chloro-3-((2-(((2′-fluoro-[1,1′-biphenyl]-4-yl)oxy)methyl)morpholino)sulfonyl)-1H-indole-2-carboxamide]"
21,37.9,"Cc1cc(OC[C@@H]2CN(S(=O)(=O)c3c(C(N)=O)[nH]c4ccc(Cl)cc34)CCO2)ccc1-c1cccnc1F [Compound 68, (S)-5-chloro-3-((2-((4-(2-fluoropyridin-3-yl)-3-methylphenoxy)methyl)morpholino)sulfonyl)-1H-indole-2-carboxamide]"
22,11.8,"Cc1ccc(-c2cccc(OC[C@@H]3CN(S(=O)(=O)c4c(C(N)=O)[nH]c5ccc(Cl)cc45)CCO3)c2)cn1 [Compound 4, (S)-5-chloro-3-((2-((3-(6-methylpyridin-3-yl)phenoxy)methyl)morpholino)sulfonyl)-1H-indole-2-carboxamide]"
23,> 1000,NC(=O)c1[nH]c2ccc(Cl)cc2c1S(=O)(=O)N1CCO[C@H](COc2cncc(-c3cc(C(F)(F)F)ccc3F)c2)C1 [Compound 75]
24,15.4,"NC(=O)c1[nH]c2ccc(Cl)cc2c1S(=O)(=O)N1CCO[C@H](COc2cccc(-c3ccc(F)cc3)c2)C1 [Compound 11, (S)-5-chloro-3-((2-(((4′-fluoro-[1,1′-biphenyl]-3-yl)oxy)methyl)morpholino)sulfonyl)-1H-indole-2-carboxamide]"

row,Molecule,IC50 [nM]
1,"(S)-5-chloro-3-((2-((3′-(dimethylamino)-[1,1′-biphenyl]-3-yl)oxy)methyl)morpholino)sulfonyl)-1H-indole-2-carboxamide [Compound 9]",220

# Test system: not listed separately
# Test: Oral absorption in Swiss mice
# Assay type: in vivo
# Settings: 10 mg/kg p.o.
# Protocol: Oral absorption of different compounds was ascertained in Swiss mice. The procedure followed was as detailed below:
# Species: Swiss mice, overnight fasted state
# Sex and weight: Male, in the weight range of 25-30 g
# Number of animals: 18 animals divided into six groups (n=3) and bled as follows:
# Formulation: Compound suspended in 0.5% carboxymethylcellulose or 0.25% methylcellulose
# Blood (250 μL) is collected from the retro-orbital sinus at designated time points from each mouse using heparinized bleeding capillaries into micro-centrifuge tubes containing 5 μL EDTA (200 mM) as anticoagulant. Plasma is separated by centrifugation at 10000 rpm for 5 min and samples stored at −70° C. until bioanalysis.
# On the day of analysis, plasma samples are thawed at room temperature. An aliquot (100 μL) of each plasma sample is spiked individually with 10 μL of internal standard. The samples are then vortexed for 10 seconds followed by addition of 1 mL of extraction solvent and vortexed for 5 minutes. The samples are then centrifuged at 10000 rpm for 5 minutes at 4° C. Supernatants (800 μL) are removed and transferred to glass tubes and evaporated to dryness under nitrogen. The dried residues are reconstituted using 100 μL of 90:10% v/v acetonitrile:MilliQ water. The reconstituted samples are vortexed, centrifuged and injected into LC-MS/MS for analysis. The calibration curve is prepared in the range of 0.5 to 5000 ng/mL in mouse plasma for quantitation.
AUC as compared to compound 999,Cmax as compared to compound 999,Molecule
higher,higher,"NC(=O)c1[nH]c2ccc(Cl)cc2c1S(=O)(=O)N1CCO[C@H](COc2ccc(-c3ccnc(Cl)c3)cc2)C1 [Compound 84, (S)-5-chloro-3-((2-((4-(2-chloropyridin-4-yl)phenoxy)methyl)morpholino)sulfonyl)-1H-indole-2-carboxamide]"

# Same assay, conditions: male, mouse, plasma, po, 10 mg/kg p.o.
Cmax [nM],half-life [h],Molecule
1240,1.3,"NC(=O)c1[nH]c2ccc(Cl)cc2c1S(=O)(=O)N1CCO[C@H](COc2ccc(-c3ccnc(Cl)c3)cc2)C1 [Compound 84, (S)-5-chloro-3-((2-((4-(2-chloropyridin-4-yl)phenoxy)methyl)morpholino)sulfonyl)-1H-indole-2-carboxamide]"

# Same assay, conditions: male, mouse, plasma, po, 10 mg/kg p.o., read-out: AUC0-infinity
row,AUC(0-inf) [ng·h/mL],Molecule
1,2200,"NC(=O)c1[nH]c2ccc(Cl)cc2c1S(=O)(=O)N1CCO[C@H](COc2ccc(-c3ccnc(Cl)c3)cc2)C1 [Compound 84, (S)-5-chloro-3-((2-((4-(2-chloropyridin-4-yl)phenoxy)methyl)morpholino)sulfonyl)-1H-indole-2-carboxamide]"
